Measured values: US20070066595A1, “Selective estrogen receptor modulators” (priority 2004, published 2007)
Where two headings read alike, the source gives them in different places.

What was measured:
[1] = test system: immature (3 week old) female rats, estrogen-induced uterine weight; assay: 3-Day Rat Uterus Antagonist Assay; format: in vivo; conditions: 3 days, with E2 0.1 mg/kg; for inhibition of the estrogen-induced response: 1.0 mg/kg oral, uterine weight/body weight ratio
Source text: 3-Day Rat Uterus Antagonist Assay: This model for uterine antagonism utilizes immature (3 week old) female rats that are highly sensitive to estrogenic stimulation of the uterus given that their circulating estrogen levels are prepubertal. The uteri from immature rats are fully responsive to exogenous estrogen, yet are quiescent in the absence of exogenous estrogen. Administration of exogenous estrogen to immature rats produces a reliable elevation of uterine weight, which can be used to study uterine antagonist effects. The rats are treated with both estradiol and 4 different concentrations of a compound of the present invention for 3 days and then uterine wet weights are measured.
Nineteen to twenty-one day old (or 45-50 g) female rats are orally treated with E2 (0.1 mg/kg, a maximal stimulatory estrogenic stimulus for reliably increasing uterine weight) and 10, 1.0, 0.1 and 0.01 mg/kg test compound for 3 days, 6 rats per group. Test compounds are dissolved in 20% β-hydroxycyclodextrin and administered by oral gavage in a volume of 0.2 mL daily (15 min. prior to the ethynyl estradiol gavage). A vehicle control, E2 alone and E2+raloxifene are also done as controls. The animals are fasted overnight following the final dose. On the following morning, the animals are weighed, then euthanized (by carbon dioxide asphyxiation) and the uteri rapidly collected (via a mid-line ventral incision) and weighed.
Uterine weight/body weight ratios (UWR) are calculated for each animal. The percent inhibition of the estrogen-induced response is then calculated by the following formula: percent inhibition=100×(UWRestrogen−UWRtest compound/UWRestrogen−UWRcontrol). ED50 values are derived from a semi-log regression analysis of the linear aspect of the dose response curve. Both the UWR data and the percent inhibition data are statistically analyzed by one way analysis of variance (ANOVA) with post-hoc testing by Fisher's PLSD when indicated by a p<0.05. Statistical analyses are performed using the Statview® 4.0 software package.

[2] = test system: mature F344 female rats, serum LH and estradiol; assay: 10-Day Rat Hormone (Ovarian Stimulation) Screen; format: in vivo; conditions: oral gavage 10 days; serum about 2 hours after 10th dose; RIA
Description: 10-Day Rat Hormone (Ovarian Stimulation) Screen: An initial, first screen for ovarian toxicity is conducted using a 10-day rat hormone study to measure estradiol and luteinizing hormone levels after compound administration. This screen is conducted by administering compound by oral gavage for 10 days to mature (9-10 week old) F344 female rats. Trunk blood is collected by rapid decapitation for evaluation of LH and estradiol levels approximately 2 hours after the 10th dose. Serum, obtained by centrifugation, is removed and stored frozen below −60° C. until assayed. Serum levels of LH and estradiol are measured using radioimmunoassay (RIA) methods.
Rat LH primary antibody and reference preparations (rat LH:RP-3) are obtained from Dr. A. F. Parlow, Director, Pituitary Hormones and Antisera Center, Harbor-UCLA Medical Center, Torrance, Calif. The LH assay upper limits of detection are 30 ng/mL and the lower limits of detection are 0.1 ng/mL for the 100 μl samples.
E2 Clinical Assays. DiaSorin s.r.l., Saluggia (Vercelli), Italy. The upper limit of detection is 1000 pg/mL and the lower limit of detection is 5 pg/mL.

[3] = test system: Ishikawa human endometrial tumor cells; assay: Ishikawa Cell Proliferation Assay (alkaline phosphatase readout; agonist and antagonist modes); format: cell-based
Description: Ishikawa Cell Proliferation Assay: This assay measures cell proliferation (using an alkaline phosphatase readout) in both an agonist mode in the presence of a compound of the present invention alone, and in an antagonist mode in which the ability of a compound of the present invention to block estradiol stimulation of growth is measured.
Ishikawa human endometrial tumor cells are maintained in MEM (minimum essential medium, with Earle's salts and L-Glutamine, Gibco BRL, Gaithersburg, Md.), supplemented with 10% fetal bovine serum (FBS) (V/V), (Gibco BRL). One day prior to assay, growth media is changed to assay medium, DMEM/F-12 (3:1) (Dulbecco's Modified Eagle Medium: Nutrient Mixture F-12, 3:1 Mixture, phenol red-free, Gibco BRL) supplemented with 5% dextran coated charcoal stripped fetal bovine serum (DCC-FBS) (Hyclone, Logen, Utah), L-Glutamine (2 mM), MEM sodium pyruvate (1 mM), HEPES (N-[2-hydroxyethyl]piperazine-N′-[2-ethanesulfonic acid]2 mM) all from Gibco BRL). After an overnight incubation, Ishikawa cells are rinsed with Dulbecco's Phosphate Buffered Saline (1×) (D-PBS) without Ca^+2 and Mg^+2 (Gibco BRL), and trypsinized by a 3 minute incubation with 0.25% Trypsin/EDTA, phenol red-free (Gibco BRL). Cells are resuspended in assay medium and adjusted to 250,000 cells/mL. Approximately 25,000 cells in a 100 ul media are added to flat-bottom 96 wells microculture plates (Costar 3596) and incubated at 37° C. in a 5% CO2 humidified incubator for 24 hours. […]
For the antagonist mode, plates receive 25 μl/well of 6 nM E2 (β-Estradiol, Sigma, St. Louis, Mo.) followed by 25 μl/well of a diluted compound of the present invention (at 6× the final concentrations). […] After a 20-minute incubation, plates are read on a spectophotometer at 405 nm.
The data is fitted to a linear interpolation to derive EC50 (for agonist mode) or IC50 (for antagonist mode) values. For the antagonist mode, a % efficacy for each compound is calculated versus E2 (1 nM) alone. For the agonist mode, a % efficacy for each compound is calculated versus the response to tamoxifen.

Compound: CS(=O)(=O)C1CCC(c2ccc3cc(O)ccc3c2Oc2ccc(OCCN3CCCCC3)cc2)CC1.Cl (stereo not drawn) [Example 3, 6-cis-and-trans-(4-Methanesulfonyl-cyclohexyl)-5-[4-(2-piperidin-1-yl-ethoxy)-phenoxy]-naphthalen-2-ol Hydrochloride]
- inhibition of the estrogen-induced response [1]: inhibit the estrogen-induced response

Compound: CS(=O)(=O)C1CC=C(c2ccc3cc(O)ccc3c2Oc2ccc(OCCN3CCCCC3)cc2)CC1.Cl (racemic) [Example 2, (+/−)-6-(4-Methanesulfonyl-cyclohex-1-enyl)-5-[4-(2-piperidin-1-yl-ethoxy)-phenoxy]-naphthalen-2-ol Hydrochloride]
- inhibition of the estrogen-induced response [1]: inhibit the estrogen-induced response
- circulating LH levels [2]: did not significantly elevate
- circulating estradiol levels [2]: did not significantly elevate

Compound: Cl.O=S1(=O)CCC(c2ccc3cc(O)ccc3c2Oc2ccc(OCCN3CCCCC3)cc2)CC1 [Example 10, 6-(1,1-Dioxo-hexahydro-1λ^6-thiopyran-4-yl)-5-[4-(2-piperidin-1-yl-ethoxy)-phenoxy]-naphthalen-2-ol Hydrochloride]
- inhibition of the estrogen-induced response [1]: inhibit the estrogen-induced response

Compound: Cl.O=S1(=O)CC=C(c2ccc3cc(O)ccc3c2Oc2ccc(OCCN3CCCCC3)cc2)CC1 [Example 9, 6-(1,1-Dioxo-1,2,3,6-tetrahydro-1λ^6-thiopyran-4-yl)-5-[4-(2-piperidin-1-yl-ethoxy)-phenoxy]-naphthalen-2-ol Hydrochloride]
- inhibition of the estrogen-induced response [1]: inhibit the estrogen-induced response
- % antagonism ([1]; oral): 72.6%
- ED50 ([1]; oral): 0.17 mpk
- Emax ([3]; agonist mode, versus the response to tamoxifen, read-out: relative % efficacy): 19%
- IC50 ([3]; antagonist mode, block of estradiol stimulation): 7.2 nM
- Emax ([3]; antagonist mode, versus E2 (1 nM) alone, read-out: % efficacy (inhibition of the 1 nM estradiol response)): 97.9%
